The values that follow come from patent publication US11565003B2, “Mechanical opening of lipid bilayers by molecular nanomachines” (William Marsh Rice University, priority 2016, dated 2023).

In data set [1] the test system is NIH 3T3 cells. Put plainly: UV-activated nanomechanical necrosis, live cell confocal microscopy, NIH 3T3. The conditions noted are these: for Time of Full Necrosis / Time of Initial Necrosis / % acceleration for full necrosis: 355 nm UV; for % acceleration for full necrosis: versus UV upon blank cells. The class given is cell-based, mouse. As for the experimental part: Following the synthetic bilipid vesicle experiments, nanomechanical action upon live cells was studied using confocal microscopy aided by a super-resolution technique called Phase Modulation Nanoscopy. Applicants used two experimental methods. In the first method (Method A), the molecular motors were loaded into the cell media and the imaging was initiated within 5 minutes to 24 hours. In the second method, (Method B), the molecular motors were loaded into the cell media, incubated for 30 minutes to 24 hours, and then washed three times with fresh molecular motor-free media before imaging. […]
(§1) Microscopy cells were seeded in untreated iBibi 100 μL live cell channels and allowed to grow to 40% to 60% confluence, at 37° C. in 5% CO2. At this stage, the medium was replaced and cells were treated with the studied nanomachines and co-stains as appropriate, with 0.1% DMSO (as detailed above) present in the final imaging medium. For live cell imaging, DMEM/F12 media (10% FBS) lacking phenol red was used from this point onwards. Following incubation, where Method B was used, the channels were washed with live cell imaging media and imaged using a purpose build incubator housing the microscope maintaining 37° C., 5% CO2 and 10% humidity.
(§2) All live cell imaging experiments used either NIH 3T3 mouse skin fibroblast cells, PC-3 cells, a grade 3 human prostate adenocarcinoma, or Chinese hamster ovary cells (CHO). These are all well-studied cell lines with discrete morphological compositions. Each molecular machine was used as a stock solution at 0.10 to 1.00 μM with total dimethyl sulfoxide (DMSO) concentrations not exceeding 0.1% in the final cell media in order to avoid unwanted cell membrane permeabilization, the DMSO being required for solubility of the organic nanomachines. All loading experiments are carried out in a light-suppressed manner and the possibility of induced or accelerated uptake due to interaction between the molecular motors and the applied co-stain has been eliminated using a series of individual and reversed loading experiments.
(§3) All experimental imaging parameters (i.e., laser beam size, confocal pinhole size, laser intensity, line scanning speed, scanning area (field of view, FOV), and line averaging sequences) were kept constant throughout the experiments. The accuracy and errors associated with the establishment of accelerated necrosis are determined based on one dual channel imaging sequence, which takes 15 seconds in total. This imaging sequence has been carefully established using untreated live cells.
Steady state fluorescence images were recorded using a PhMoNa enhanced Leica SP5 II LSCM equipped with a HCX PL APO 63×/1.40 NA LambdaBlue Oil immersion objective. As an initial control experiment to establish the UV-induced cell toxicity threshold, while mitigating voxel exposure and ensuring sufficient laser dwell time, an imaging sequence has been established to monitor cell morphological and physiological changes as a function of time. All experiments used cell-line-determined culture medium containing 0.1% DMSO.
The applied 100 Hz detection sequence was based on a bidirectional dual-channel continuous scanning method where a minimalistic non-damaging visible laser light (458 nm, 0.2 mW) is used in conjunction with the above detailed UV exposure. This is set as a 2 line/scan accumulation parallel acquisition sequence that is recorded as a function of time. Studied channels correspond to transmission images and UV-induced mitochondrial auto-fluorescence detected at 460 to 550 nm. Applicants further confirmed that the effectiveness of monitoring the UV-activated nanomechanical action on live cells using a conventional CW mercury-arc excitation source equipped with an epi-fluorescence setup consisting of a Zeiss Axiovert 200M inverted microscope, as discussed in FIGS. 18A-C. […]

In another data set the test system is PC-3 cells. Put plainly: UV-activated nanomechanical necrosis, live cell confocal microscopy, PC-3. To be noted: for Time of Full Necrosis / Time of Initial Necrosis / % acceleration for full necrosis: 355 nm UV; for % acceleration for full necrosis: versus UV upon blank cells. The class given is cell-based, human. Here is the method:
(§4) Following the synthetic bilipid vesicle experiments, nanomechanical action upon live cells was studied using confocal microscopy aided by a super-resolution technique called Phase Modulation Nanoscopy. Applicants used two experimental methods. In the first method (Method A), the molecular motors were loaded into the cell media and the imaging was initiated within 5 minutes to 24 hours. In the second method, (Method B), the molecular motors were loaded into the cell media, incubated for 30 minutes to 24 hours, and then washed three times with fresh molecular motor-free media before imaging.
Next, Applicants used the smaller nanomachine, 3. Initial control experiments (blank) were performed without nanomachines being present. UV-induced (355 nm) PC-3 necrosis is not initiated until approximately scan 20 (corresponding to 300 second continuous scanning UV exposure, 400 nJ/voxel total dwell time), characterized by massive disruption and rupture of the mitochondrial network and subsequent well-pronounced auto-fluorescent signal detectable in the nucleoli and nucleus wall (FIG. 7A). This is observable by the nucleoli membrane permeabilization and DNA damage at the onset of necrosis. The UV-induced necrosis reaches final stages at approximately scan 40 (corresponding to 600 seconds) that is consistent with characteristic extracellular membrane rupture and homogenous cytosolic auto-fluorescence, indicating loss of cellular organelle boundaries.
as §1, §2, §3
Steady state fluorescence images were recorded using a PhMoNa enhanced Leica SP5 II LSCM equipped with a HCX PL APO 63×/1.40 NA LambdaBlue Oil immersion objective. As an initial control experiment to establish the UV-induced cell toxicity threshold, while mitigating voxel exposure and ensuring sufficient laser dwell time, an imaging sequence has been established to monitor cell morphological and physiological changes as a function of time. All experiments used cell-line-determined culture medium containing 0.1% DMSO. […]

Another data set deals with HEK293 cells. The data set can be described thus: Whole cell patch clamp electrophysiology. The class given is cell-based, human. As for the experimental part:
FIGS. 16A-B show whole-cell patch clamp studies of the dynamic effects of UV-induced molecular mechanical action of compound 3 upon HEK293 cells. Also shown are control studies using compound 3 without UV activation, UV-exposed rotor-free control molecule 5, and no molecular additives x. Compounds 3 and 5 were used at 1.0 μM concentrations. […] Similarly, the rotor-free compound 5, and no molecular additive x, show no inward currents during UV illumination (center two traces). Cells were held at −70 mV in voltage clamp mode and UV exposure began 15 seconds after the start of the recording. Each recording is a biological replicate and all traces are shown (n=4 recordings from different cells for 3+UV; n=3 recordings from different cells for each other condition). […] The white arrows (lower right image) highlight membrane blebbing that appears only in the cells treated with UV-activated compound 3. The scale bar represents 10 μm and is applicable for each micrograph.
The dynamic effects of nanomechanical action upon cellular membranes were then studied through the whole cell patch clamp electrophysiology of human embryonic kidney 293 cells (HEK293) commonly used for electrophysiological interrogation. […] These inward currents were not observed in the absence of UV illumination or during UV illumination of non-rotor-bearing control 5 or UV illumination of untreated cells (FIG. 16A).
For orientation: Patch clamp records ionic current or voltage across a cell membrane.

Data set [2] deals with NIH 3T3 cells. The data set can be described thus: Uptake, localization and toxicity of fluorescent nanomachines without UV-light exposure. The class given is cell-based, mouse. As for the experimental part: as §4
Applicants first studied the effect of the nanomachines on the cells without UV-light exposure. […] However, due to 1 and 2 having well-pronounced visible fluorescence properties corresponding to the cy5 and BODIPY addends (FIGS. 5A-B and Table 1, respectively), their intracellular uptake, motion or protein/organelle-assisted trafficking are clearly observed. The two luminescent compounds display very different localization patterns.
Applicants undertook a series of control experiments to confirm active molecular motor uptake and suspected endocytosis, using a range of nanomachine loading concentrations (0.10-1.00 μM, Method A) and incubation times of 5-60 minutes at 4° C., which is a temperature of general endocytosis inhibition.

[3] abbreviates: NIH 3T3, Method B (washed three times).
The mark [4] stands for this setting: PC-3, Method B (washed three times).

For `C[C@@H]1Cc2ccc3ccccc3c2C1=C1c2cc(C#CCCn3cc(CCC(=O)N[C@@H](CC(=O)O)C(=O)NCC(=O)N[C@@H](CCC(=O)O)C(=O)N[C@@H](C)C(N)=O)nn3)ccc2Sc2ccc(C#CCCn3cc(CCC(=O)N[C@@H](CC(=O)O)C(=O)NCC(=O)N[C@@H](CCC(=O)O)C(=O)N[C@@H](C)C(N)=O)nn3)cc21` [Compound 7], the “Time of Full Necrosis” value with NIH 3T3 cells [1] (NIH 3T3, Method A (no washing)) stood at 390 s; in the data set with NIH 3T3 cells [1] (setting [3]), 390 s; in the data set with PC-3 cells (PC-3, Method A (no washing)) it was 360 s; in the data set on PC-3 cells (setting [4]), 390 s. Besides, the “Time of Initial Necrosis” value in the data set on NIH 3T3 cells [1] (NIH 3T3, Method A (no washing)) amounted to 150 s; in the data set with NIH 3T3 cells [1] (setting [3]), 165 s; in the data set on PC-3 cells (PC-3, Method A (no washing)), 165 s; in the data set with PC-3 cells (setting [4]), 180 s. The “% acceleration for full necrosis” value with NIH 3T3 cells [1] (NIH 3T3, Method A) amounted to 40%; with NIH 3T3 cells [1] (NIH 3T3, Method B), 40%; in the data set on PC-3 cells (PC-3, Method A), 35%; in the data set on PC-3 cells (PC-3, Method B), 35%. Also, the “selectivity for targeted PC-3 cells over non-targeted control cells (in words)” value with PC-3 cells (NIH 3T3 and CHO as non-targeted controls) was “No selectivity was observed”.
As to `O=c1c2cc(C#CCCO)ccc2sc2ccc(C#CCCO)cc12` [Compound 5, reference compound], the “membrane currents without UV illumination (in words)” value in the data set with HEK293 cells (HEK293, 1.0 μM, 4 minute recording, no UV) was “no change in membrane currents”. In addition, the “inward ionic currents during UV illumination (in words)” value in the data set with HEK293 cells (HEK293, Method B, UV 355 nm, 1.0 μM) is on record as “not observed”. In the data set with NIH 3T3 cells [1] (NIH 3T3, Method A), the “effect on necrosis upon standardized UV-exposure (in words)” value (from here on “effect”) was “no effect on necrosis” and the “% acceleration for full necrosis” value was 0%. Moreover, in the data set with NIH 3T3 cells [1] (NIH 3T3, Method A (no washing)), the “Time of Full Necrosis” value is reported as 600 s and the “Time of Initial Necrosis” value is 300 s. In the data set on PC-3 cells (PC-3, Method A), the “effect” value is reported as “no effect on necrosis” and the “% acceleration for full necrosis” value came out at 0%. Moreover, in the data set with PC-3 cells (PC-3, Method A (no washing)), the “Time of Full Necrosis” value came to 600 s and the “Time of Initial Necrosis” value is on record as 300 s.
`OCCC#Cc1ccc2c(c1)C(=C1CCc3ccc4ccccc4c31)c1cc(C#CCCO)ccc1S2` [NonMe-3, reference compound]: in the data set on PC-3 cells (PC-3, Method A (no washing)), the “Time of Full Necrosis” value is recorded as 540 s and the “Time of Initial Necrosis” value is 270 s. Also, the “% acceleration for full necrosis” value with PC-3 cells (PC-3, Method A) is listed as 10%. The “effect” value in the data set on PC-3 cells (PC-3, Method A, listed as compound analogous to 3 but without the allylic methyl) was “only slightly faster than the motor-free system”. The “effect” value in the data set on PC-3 cells (PC-3, Method A, listed as demethylated 3) is given as “slowed necrosis”.
On to `CC1=CC(C)=[N+]2C1=C(c1ccccc1C(=O)OCc1cn(CCC#Cc3ccc4c(c3)C(=C3c5c(ccc6ccccc56)C[C@H]3C)c3cc(C#CCCn5cc(COC(=O)c6ccccc6C6=C7C(C)=CC(C)=[N+]7[B-](F)(F)n7c(C)cc(C)c76)nn5)ccc3S4)nn1)c1c(C)cc(C)n1[B-]2(F)F` (racemic) [Compound 2], for which, in the data set on NIH 3T3 cells [2] (NIH 3T3, 0.10-1.00 μM, 5-60 minutes, 4° C.), the “localized fluorescence at 4° C. (endocytosis inhibition) (in words)” value is on record as “no detectable localized fluorescence”. Also, in the data set on NIH 3T3 cells [2] (NIH 3T3, Method A, 0.10-1.00 μM), the “intracellular localization without UV (in words)” value is “enters the cell and localizes in the mitochondria”. Besides, the “necrosis without UV-light exposure (in words)” value in the data set on NIH 3T3 cells [2] (NIH 3T3, Method A, no UV) was “do not induce accelerated necrosis”. The “toxicity in the applied time and concentration regimes (in words)” value with NIH 3T3 cells [2] (NIH 3T3, no UV) is on record as “non-toxic”. In addition, the “Time of Full Necrosis” value with NIH 3T3 cells [1] (NIH 3T3, Method A (no washing)) is 585 s; with NIH 3T3 cells [1] (setting [3]), 570 s. Also, the “Time of Initial Necrosis” value in the data set on NIH 3T3 cells [1] (NIH 3T3, Method A (no washing)) was found to be 300 s; with NIH 3T3 cells [1] (setting [3]) it was 300 s. Besides, the “% acceleration for full necrosis” value in the data set on NIH 3T3 cells [1] (NIH 3T3, Method A) amounted to 2.5%; in the data set with NIH 3T3 cells [1] (NIH 3T3, Method B), 5%.
In the case of `Cc1ccc(S(=O)(=O)OCCC#Cc2ccc3c(c2)C(=C2c4c(ccc5ccccc45)C[C@H]2C)c2cc(C#CCCOS(=O)(=O)c4ccc(C)cc4)ccc2S3)cc1` (racemic) [Compound 4], the “Time of Full Necrosis” value worked out at 540 s in the data set on NIH 3T3 cells [1] (NIH 3T3, Method A (no washing)) and 540 s in the data set with PC-3 cells (PC-3, Method A (no washing)). Moreover, the “Time of Initial Necrosis” value in the data set on NIH 3T3 cells [1] (NIH 3T3, Method A (no washing)) was found to be 270 s; in the data set on PC-3 cells (PC-3, Method A (no washing)), 270 s. For the same compound, the “% acceleration for full necrosis” value in the data set with NIH 3T3 cells [1] (NIH 3T3, Method A) turned out to be 10%; in the data set with PC-3 cells (PC-3, Method A), 10%.
Turning to `C[C@@H]1CSc2ccc3ccccc3c2C1=C1c2cc(C#CCCO)ccc2Sc2ccc(C#CCCO)cc21` (racemic) [Compound 6, reference compound], the “effect” value was “no enhanced necrosis” with NIH 3T3 cells [1] (NIH 3T3, Method A) and “no enhanced necrosis” in the data set with PC-3 cells (PC-3, Method A). The “Time of Full Necrosis” value with NIH 3T3 cells [1] (NIH 3T3, Method A (no washing)) came out at 615 s; in the data set with PC-3 cells (PC-3, Method A (no washing)) it was 600 s. Further, the “Time of Initial Necrosis” value in the data set with NIH 3T3 cells [1] (NIH 3T3, Method A (no washing)) is listed as 300 s; with PC-3 cells (PC-3, Method A (no washing)), 300 s. Moreover, the “% acceleration for full necrosis” value was determined as 0% in the data set on NIH 3T3 cells [1] (NIH 3T3, Method A) and 0% with PC-3 cells (PC-3, Method A).
